Source: PubChem BioAssay (NCI)
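Each compound was tested at five concentrations against cells in 96-well plates for 48 hours. The concentration for full growth arrest is given as TGI.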

Columns and labels:
Assay in all cases: NCI tumour cell line growth inhibition, 48 h
[1] = system: HCT-15 colon
[2] = system: PC-3 prostate
[3] = system: UO-31 renal
[4] = system: OVCAR-4 ovarian
[5] = system: OVCAR-3 ovarian
[6] = system: M14 melanoma
[7] = system: SK-MEL-28 melanoma
[8] = system: A549 NSCLC
[9] = system: U251 CNS
[10] = system: MOLT-4 leukemia

SMILES	TGI [1] [µM]	TGI [2] [µM]	TGI [3] [µM]	TGI [4] [µM]	TGI [5] [µM]	TGI [6] [µM]	TGI [7] [µM]	TGI [8] [µM]	TGI [9] [µM]	TGI [10] [µM]
COc1cccc(NC(=O)CC(=O)N2N=C(C)C(N=Nc3ccc(C(=O)O)cc3)C2=O)c1 (stereo not given)	> 100	> 100	> 100	> 100	> 100	> 100	> 100	> 100	–	–
COc1ccc(C2SCC(=O)N2NC(=O)C(C)Oc2ccc(Cl)cc2Cl)cc1 (stereo not given)	> 100	75.6	> 100	52.6	> 100	> 100	96.3	> 100	> 100	94.6
Cc1ccc(NC2=N/C(=C/c3ccco3)C(Cl)=N2)cc1	> 100	> 100	> 100	> 100	> 100	> 100	> 100	> 100	> 100	> 100
C=CC(OC(C)=O)c1ccc(OC(C)=O)cc1 (stereo not given)	23.5	7.82	4.25	37.5	16.4	22.9	28.6	43.6	5.65	> 44
O=C1/C(=C/c2ccc(O)cc2)CCC1CNc1ccccc1 (stereo not given)	13.9	23.7	29	33.3	28.4	28.1	29.9	34.8	30.3	–
NC1c2c(Cl)sc(Cl)c2C(=O)C1O (stereo not given)	30.1	> 100	> 100	50.4	> 100	> 100	–	> 100	60	57.5
CC1(C)C=[N+]([O-])C(C)(C)N1O	> 10	> 10	> 10	> 10	> 10	> 10	–	> 10	> 10	> 10
Nn1c(Sc2nc3ccccc3c(=O)n2N)nc2ccccc2c1=O	16.5	28.4	3.26	> 100	40.3	4.02	13.1	39	20	3.69
Cc1c(C#N)c(=N)oc2ccccc12	> 100	> 100	> 100	> 100	> 100	> 100	> 100	> 100	> 100	> 100
CC1CN=C(c2ccc(CN3CCC(C4CCN(Cc5ccc(C6=NCC(C)N6)cc5)CC4)CC3)cc2)N1 (stereo not given)	94.7	35.8	58.4	38.8	44.5	44	> 100	46	29.6	46.5
COC(=O)c1cc(C)ccc1C1CN=NC12Cc1c(C)cc(C)cc1C2=O (stereo not given)	69.1	> 100	> 100	80	75.5	41.9	> 100	> 100	> 100	56.2
